These are literature values, as cited in patent publication US7709647B2, “Tetrahydroquinoline cannabinoid receptor modulators” (Bristol-Myers Squibb Company, priority 2005, dated 2010).

Structures are written as SMILES.

For data set [1] the following is noted: chronic administration for two weeks.
Another data set concerns human subjects. Conditions: 16 week trial period, published Phase IIb data.

Turning to `Cc1c(C(=O)NN2CCCCC2)nn(-c2ccc(Cl)cc2Cl)c1-c1ccc(I)cc1` [AM-251], the body weight entry in data set [1] is reported as “substantial body weight reduction”.

For `Cc1c(C(=O)NN2CCCCC2)nn(-c2ccc(Cl)cc2Cl)c1-c1ccc(Cl)cc1` [SR-141716], in the data set on human subjects, the body weight entry is “dose-dependently reduced body weight”.
